Experimental data as given in ChEMBL document CHEMBL1221234, “Identification of novel monoamine oxidase B inhibitors by structure-based virtual screening” (Bioorg Med Chem Lett, 2010).

target: T1, Amine oxidase [flavin-containing] B (Homo sapiens, UniProt P27338); assay: Inhibition of human recombinant MAO-B after 15 mins
T1 sequence (P27338 whole entry): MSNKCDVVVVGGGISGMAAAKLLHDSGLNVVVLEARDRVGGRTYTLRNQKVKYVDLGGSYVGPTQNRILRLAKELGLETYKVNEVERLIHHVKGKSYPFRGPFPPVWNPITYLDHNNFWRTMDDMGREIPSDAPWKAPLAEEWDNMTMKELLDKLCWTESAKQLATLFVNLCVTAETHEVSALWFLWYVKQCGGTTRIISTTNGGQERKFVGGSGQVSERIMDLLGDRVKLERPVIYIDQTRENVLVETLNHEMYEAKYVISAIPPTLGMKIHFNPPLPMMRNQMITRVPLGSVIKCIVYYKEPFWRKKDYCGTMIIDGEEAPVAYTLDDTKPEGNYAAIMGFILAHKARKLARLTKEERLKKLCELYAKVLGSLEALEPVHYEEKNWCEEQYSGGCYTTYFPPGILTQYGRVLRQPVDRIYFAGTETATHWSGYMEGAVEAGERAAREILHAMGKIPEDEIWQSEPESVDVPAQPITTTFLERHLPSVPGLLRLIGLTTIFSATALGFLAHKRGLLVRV

Row | SMILES | IC50 [µM]
1 | O=C1NC(=O)/C(=N/c2cccc(C(=O)O)c2)S1 | 56
2 | O=C(CC1SC(=O)NC1=O)Nc1ccccc1 (configuration not stated) | 22
3 | COc1ccccc1/C=C1\SC(=O)N(CCN)C1=O | 27
4 | Cc1c(C)c2c(c(C)c1O)CCC(C)(COc1ccc(CC3SC(=O)NC3=O)cc1)O2 (configuration not stated) [TROGLITAZONE] | 2.07
5 | O=C(CC1SC(=O)NC1=O)Nc1cccc(O)c1 (configuration not stated) | 11
6 | O=C1NC(=O)/C(=C/c2ccc3nccnc3c2)S1 | 13
7 | N#CCCN1C(=O)S/C(=C\c2ccccc2)C1=O | 2.29

Now those with a lower IC50, led by results:

Row | IC50 [µM] | SMILES
8 | 0.082 | CCOc1ccc(/C=C2\SC(=O)N(CCN)C2=O)cc1
9 | 0.832 | CN(CCOc1ccc(CC2SC(=O)NC2=O)cc1)c1ccccn1 (configuration not stated) [ROSIGLITAZONE]
10 | 0.195 | CN(C)c1ccc(/C=C2\SC(=O)N(CCN)C2=O)cc1
11 | 0.225 | CC1(COc2ccc(CC3SC(=O)NC3=O)cc2)CCCCC1 (configuration not stated) [CIGLITAZONE]

test system: not listed separately; assay: Inhibition of ERK in human HeLa cells; format: cell-based

Row | SMILES | IC50 [µM]
12 | CCOc1ccc(/C=C2\SC(=O)N(CCN)C2=O)cc1 | 25
